Experimental data reported in patent US20140066365A1, “USE OF CALIXARENES ASSOCIATED WITH AN ANTIBIOTIC IN THE TREATMENT OF BACTERIAL INFECTIONS” (priority 2011, published 2014).
≈ marks a conversion by molar mass, not a printed value. Like-named read-outs stand apart in the source and are kept apart here.

Assays:
Format in all cases: cell-based
[1] = system: EcR1: Penicillinase-Producing Escherichia coli without Associated Resistance; test: Antibiogram, MIC by the VITEK 2 system; details: for CA-SFM Interpretation: EcR1, MIC against Cc CA-SFM 2011; for CLSI Interpretation: EcR1, MIC against Cc CLSI 2011; for Results: EcR1, interpretation of the MIC, Table A1; for MIC: Escherichia coli; for EUCAST Interpretation: EcR1, MIC against Cc EUCAST 2011
Method: (§1) 5.1 EcR1: Penicillinase-Producing Escherichia coli without Associated Resistance The bacterial and antibiogramidentification is carried out by the VITEK 2 system (bioMérieux) and by the disk diffusion technique.

[2] = system: EcR2: Cephalosporinase-Hyperproducing Strain of Escherichia coli; test: Antibiogram, MIC by the VITEK 1 system; details: for Results: EcR2, Table B1; for CA-SFM Interpretation: Cc CA-SFM 2011; for CLSI Interpretation: Cc CLSI 2011; for MIC: Escherichia coli
Method: (§2) The bacterial and antibiogramidentification is carried out by the VITEK 1 system (bioMérieux) and by the disk diffusion technique

[3] = system: EcR3: ESBL-Producing Escherichia coli; test: Antibiogram by the disk diffusion technique; details: for CA-SFM Interpretation: Cd CA-SFM 2011; for CLSI Interpretation: Cd CLSI 2011; for EUCAST Interpretation: Cd EUCAST 2011; for Results: Table C1, against Dmin Dmax; for diameter in mm: Table C2; for Diameter: Table C1
Method: The bacterial and antibiogramidentification is carried out by the VITEK 2 system (bioMerieux) and by the disk diffusion technique

[4] = system: SaR3: Meticillin-Resistant Staphylococcus aureus; test: Antibiogram by the disk diffusion technique
Method: (§3) The bacterial and antibiogramidentification is carried out by the VITEK 2 system (bioMérieux) and by the disk diffusion technique

[5] = system: EcR1: Penicillinase-Producing Escherichia coli without Associated Resistance; test: Antibiogram by the disk diffusion technique; details: for Diameter: EcR1, disk diffusion; for Diameter / Results: Table A1; for Results: EcR1, interpretation of the diameter against Dmin Dmax
Method: as §1

[6] = system: EcR2: Cephalosporinase-Hyperproducing Strain of Escherichia coli; test: Antibiogram by the disk diffusion technique
Method: as §2

[7] = system: PaR2: Pseudomonas aeruginosa
Method: as §3

[8] = system: PaR5: Pseudomonas aeruginosa; test: Antibiogram by the disk diffusion technique
Method: as §3

[9] = system: PaR3: Pseudomonas aeruginosa; test: Antibiogram, MIC by the VITEK 2 system
Method: (§4) The bacterial and antibiogramidentification is carried out by the VITEK 2 system (bioMérieux)

[10] = system: SaR1: Meticillin-Resistant Staphylococcus aureus without Associated Resistance; test: Antibiogram, MIC by the VITEK 2 system; details: SaR1
Method: as §4

[11] = EcR1, Table A2, read-out: MIC mg/L (diameter in mm)
[12] = EcR1, VITEK 2, Table A1, read-out: MIC
[13] = EcR2, VITEK 1, Table B1, read-out: MIC
[14] = EcR2, Table B2, MIC, read-out: MIC

CCn1cc(C(=O)O)c(=O)c2ccc(C)nc21 [Nalidixic acid]
CA-SFM Interpretation [1]: Susceptible | CLSI Interpretation [1]: Susceptible | Results [1]: Susceptible | MIC ([1]; read-out: MIC mg/L): ≤ 2 mg/L | MIC ([1]; read-out: MIC mg/L (diameter in mm)): ≤ 2 mg/L | Results [2]: Resistant | CA-SFM Interpretation ([2]; EcR2, from MIC): Resistant | CLSI Interpretation ([2]; EcR2, from MIC): Resistant | MIC [2]: ≥ 32 mg/L | MIC ([2]; read-out: MIC mg/L): ≥ 32 mg/L

CO[C@@]1(NC(=O)Cc2cccs2)C(=O)N2C(C(=O)O)=C(COC(N)=O)CS[C@@H]21 [Cefoxitin]
CA-SFM Interpretation [3]: Resistant | CLSI Interpretation [3]: Resistant | EUCAST Interpretation [3]: Resistant | Results [3]: Intermediate | diameter in mm [3]: 6 mm | CA-SFM Interpretation [1]: Susceptible | CLSI Interpretation [1]: Susceptible | Results [1]: Susceptible | MIC [1, 11]: ≤ 4 mg/L | MIC [1, 12]: ≤ 4 mg/L | CA-SFM Interpretation ([4]; Cd CA-SFM 2011): Resistant | CLSI Interpretation ([4]; Cd CLSI 2011): Resistant | EUCAST Interpretation ([4]; Cd EUCAST 2011): Resistant | diameter in mm ([4]; Table E2): 17 mm | Diameter [5]: 24 mm | Results [5]: Susceptible | Diameter ([6]; EcR2, disk diffusion, Table B1): 11 | Results ([6]; EcR2, rows that print a diameter, Table B1): Resistant | Diameter ([6]; EcR2, Table B2, diameters): 11 mm | CA-SFM Interpretation ([6]; EcR2, from diameter, CA-SFM 2011): Resistant | CLSI Interpretation ([6]; EcR2, from diameter, CLSI 2011): Resistant | EUCAST Interpretation ([6]; EcR2, from diameter, EUCAST 2011): Resistant

CC1(C)S[C@@H]2[C@H](NC(=O)[C@H](C(=O)O)c3ccsc3)C(=O)N2[C@H]1C(=O)O [Ticarcillin]
CA-SFM Interpretation [3]: Resistant | CLSI Interpretation [3]: Resistant | EUCAST Interpretation [3]: Resistant | Diameter [3]: 6 mm | Results [3]: Resistant | diameter in mm [3]: 6 mm | CA-SFM Interpretation ([7]; Cd CA-SFM 2011): Resistant | CLSI Interpretation ([7]; Cd CLSI 2011): Resistant | EUCAST Interpretation ([7]; Cd EUCAST 2011): Resistant | Diameter ([7]; Table G1): 10 mm | Results ([7]; Table G1, against Dmin-Dmax): Resistant | diameter in mm ([7]; Table G2): 10 mm | CA-SFM Interpretation [1]: Resistant | CLSI Interpretation [1]: Resistant | EUCAST Interpretation [1]: Resistant | Results [1]: Resistant | MIC [1, 11]: ≥ 128 mg/L | MIC [1, 12]: ≥ 128 mg/L | Results [2]: Intermediate | CA-SFM Interpretation ([2]; EcR2, from MIC): Resistant | CLSI Interpretation ([2]; EcR2, from MIC): Resistant | EUCAST Interpretation ([2]; EcR2, from MIC, Cc EUCAST 2011): Resistant | MIC [2, 13]: 32 mg/L (≈ 83.2 µM) | MIC [2, 14]: 32 mg/L (≈ 83.2 µM) | Diameter ([8]; PaR5, Table I1): 32 mm | Results ([8]; PaR5, Table I1, against Dmin-Dmax): Susceptible | diameter in mm ([8]; disk diffusion inhibition diameter, strain PaR5): 32 mm | CA-SFM Interpretation ([8]; disk diffusion, PaR5, versus critical diameter CA-SFM 2011): Susceptible | CLSI Interpretation ([8]; disk diffusion, PaR5, versus critical diameter CLSI 2011): Susceptible | EUCAST Interpretation ([8]; disk diffusion, PaR5, versus critical diameter EUCAST 2011, for ** antibiotics the disk load differs and the EUCAST interpretation is not applicable): Susceptible | Diameter [5]: 6 mm | Results [5]: Resistant | CA-SFM Interpretation ([9]; Cc CA-SFM 2011): Resistant | CLSI Interpretation ([9]; Cc CLSI 2011): Resistant | EUCAST Interpretation ([9]; Cc EUCAST 2011): Resistant | MIC ([9]; Pseudomonas aeruginosa, Table H2, read-out: MIC): ≥ 128 µg/mL | MIC ([9]; Table H1): ≧128 | Results ([9]; Table H1): Resistant

Quinupristin-dalfopristin
CA-SFM Interpretation ([10]; Cc CA-SFM 2011): Susceptible | CLSI Interpretation ([10]; Cc CLSI 2011): Susceptible | EUCAST Interpretation ([10]; Cc EUCAST 2011): Susceptible | MIC mg/L ([10]; Table D1): ≦0.25 mg/L | Results ([10]; Table D1, from MIC): Susceptible | MIC mg/L ([10]; Table D2): ≦0.25 mg/L

CCn1cc(C(=O)O)c(=O)c2cc(F)c(N3CCNCC3)cc21 [Norfloxacin]
CA-SFM Interpretation [1]: Susceptible | CLSI Interpretation [1]: Susceptible | EUCAST Interpretation [1]: Susceptible | Results [1]: Susceptible | MIC [1, 11]: ≤ 0.5 mg/L | MIC [1, 12]: ≤ 0.5 mg/L

C[C@H]1[C@H](NC(=O)/C(=N\OC(C)(C)C(=O)O)c2csc(N)n2)C(=O)N1S(=O)(=O)O [Aztreonam]
MIC mg/L (diameter in mm) ([5]; EcR1, cells that print a diameter, Table A2): 28 mm | CA-SFM Interpretation ([5]; EcR1, diameter against CA-SFM 2011 limits): Susceptible | CLSI Interpretation ([5]; EcR1, diameter against CLSI 2011 limits): Susceptible | EUCAST Interpretation ([5]; EcR1, diameter against EUCAST 2011 limits): Susceptible | Diameter [5]: 28 mm | Results [5]: Susceptible

CCn1cc(C(=O)O)c(=O)c2cc(F)c(N3CCN(C)CC3)cc21 [Pefloxacin]
CA-SFM Interpretation [3]: Susceptible | Diameter [3]: 23 mm | diameter in mm [3]: 23 mm | Results [2]: Resistant | CA-SFM Interpretation ([2]; EcR2, from MIC): Resistant | MIC [2, 13]: ≥ 8 mg/L | MIC [2, 14]: ≥ 8 mg/L | Diameter [5]: 26 mm
